# Data published in PubChem BioAssay (NCI).
#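 In this assay, cells in 96-well plates receive the compound at five concentrations for 48 hours. Endpoints are linearly interpolated between the surrounding concentrations. At the GI50, growth is halved. TGI: concentration producing complete growth inhibition.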
# Legend:
# Assay in all cases: DTP human tumour cell line panel, 48 h
# MALME-3M melanoma = tested on: MALME-3M melanoma
# RPMI-8226 leukemia = tested on: RPMI-8226 leukemia
# SK-OV-3 ovarian = tested on: SK-OV-3 ovarian
# KM12 colon = tested on: KM12 colon
# OVCAR-4 ovarian = tested on: OVCAR-4 ovarian
# NCI-H460 lung = tested on: NCI-H460 lung
# EKVX NSCLC = tested on: EKVX NSCLC
# SF-295 CNS = tested on: SF-295 CNS
# MDA-MB-468 breast = tested on: MDA-MB-468 breast
# HL-60(TB) leukemia = tested on: HL-60(TB) leukemia
# PC-3 prostate = tested on: PC-3 prostate
# U251 CNS = tested on: U251 CNS
# SNB-19 CNS = tested on: SNB-19 CNS
# NCI-H522 lung = tested on: NCI-H522 lung
# SK-MEL-5 melanoma = tested on: SK-MEL-5 melanoma
# CAKI-1 renal = tested on: CAKI-1 renal
# A549 NSCLC = tested on: A549 NSCLC
# TK-10 renal = tested on: TK-10 renal
# SR leukemia = tested on: SR leukemia
# SNB-75 CNS = tested on: SNB-75 CNS
# CCRF-CEM leukemia = tested on: CCRF-CEM leukemia
# OVCAR-8 ovarian = tested on: OVCAR-8 ovarian
# SF-539 CNS = tested on: SF-539 CNS
# SF-268 CNS = tested on: SF-268 CNS
# HOP-92 NSCLC = tested on: HOP-92 NSCLC
# COLO 205 colon = tested on: COLO 205 colon
# MDA-MB-435 = tested on: MDA-MB-435
# BT-549 breast = tested on: BT-549 breast
# UO-31 renal = tested on: UO-31 renal
# HT29 colon = tested on: HT29 colon
# SN12C renal = tested on: SN12C renal
# HCC-2998 colon = tested on: HCC-2998 colon
# HCT-15 colon = tested on: HCT-15 colon
# MCF7 breast = tested on: MCF7 breast
# NCI/ADR-RES ovarian = tested on: NCI/ADR-RES ovarian
# T-47D breast = tested on: T-47D breast
# HCT-116 colon = tested on: HCT-116 colon
# OVCAR-5 ovarian = tested on: OVCAR-5 ovarian
# MDA-MB-231 breast = tested on: MDA-MB-231 breast
# ACHN renal = tested on: ACHN renal
# MOLT-4 leukemia = tested on: MOLT-4 leukemia
# SK-MEL-28 melanoma = tested on: SK-MEL-28 melanoma
# NCI-H23 lung = tested on: NCI-H23 lung
# K-562 leukemia = tested on: K-562 leukemia
# 786-0 renal = tested on: 786-0 renal
# HS 578T breast = tested on: HS 578T breast
# SK-MEL-2 melanoma = tested on: SK-MEL-2 melanoma
# DU-145 prostate = tested on: DU-145 prostate
# UACC-257 melanoma = tested on: UACC-257 melanoma
# M14 melanoma = tested on: M14 melanoma
# UACC-62 melanoma = tested on: UACC-62 melanoma
# LOX IMVI melanoma = tested on: LOX IMVI melanoma
# NCI-H226 lung = tested on: NCI-H226 lung
# HOP-62 NSCLC = tested on: HOP-62 NSCLC
# IGROV1 ovarian = tested on: IGROV1 ovarian
# OVCAR-3 ovarian = tested on: OVCAR-3 ovarian
# A498 renal = tested on: A498 renal
# SW-620 colon = tested on: SW-620 colon
structure (smiles),measurement,setting,value
Cc1cc2nc3c4ccccc4n(CC4=NCCN4)c3nc2cc1C,GI50,MALME-3M melanoma,1.4 µM
same,TGI,MALME-3M melanoma,2.85 µM
same,GI50,RPMI-8226 leukemia,2.55 µM
same,TGI,RPMI-8226 leukemia,36 µM
same,GI50,SK-OV-3 ovarian,2.43 µM
same,TGI,SK-OV-3 ovarian,9.95 µM
same,GI50,KM12 colon,5.51 µM
same,TGI,KM12 colon,22.6 µM
same,GI50,OVCAR-4 ovarian,5.76 µM
same,TGI,OVCAR-4 ovarian,20.8 µM
same,GI50,NCI-H460 lung,0.634 µM
same,TGI,NCI-H460 lung,1.93 µM
same,GI50,EKVX NSCLC,10.3 µM
same,TGI,EKVX NSCLC,22.5 µM
same,GI50,SF-295 CNS,1.12 µM
same,TGI,SF-295 CNS,10.7 µM
same,GI50,MDA-MB-468 breast,2.06 µM
same,TGI,MDA-MB-468 breast,7.09 µM
same,GI50,HL-60(TB) leukemia,3.06 µM
same,TGI,HL-60(TB) leukemia,14.4 µM
same,GI50,PC-3 prostate,1.75 µM
same,TGI,PC-3 prostate,> 100 µM
same,GI50,U251 CNS,1.25 µM
same,TGI,U251 CNS,4.21 µM
same,GI50,SNB-19 CNS,3.21 µM
same,TGI,SNB-19 CNS,15.9 µM
same,GI50,NCI-H522 lung,1.86 µM
same,TGI,NCI-H522 lung,15.1 µM
same,GI50,SK-MEL-5 melanoma,6.62 µM
same,TGI,SK-MEL-5 melanoma,19.2 µM
same,GI50,CAKI-1 renal,1.38 µM
same,TGI,CAKI-1 renal,11.7 µM
same,GI50,A549 NSCLC,1.28 µM
same,TGI,A549 NSCLC,16.6 µM
same,GI50,TK-10 renal,6.35 µM
same,TGI,TK-10 renal,20.7 µM
same,GI50,SR leukemia,0.523 µM
same,TGI,SR leukemia,9.37 µM
same,GI50,SNB-75 CNS,1.49 µM
same,TGI,SNB-75 CNS,10.7 µM
same,GI50,CCRF-CEM leukemia,2.37 µM
same,TGI,CCRF-CEM leukemia,42.2 µM
same,GI50,OVCAR-8 ovarian,2.53 µM
same,TGI,OVCAR-8 ovarian,19.3 µM
same,GI50,SF-539 CNS,1.59 µM
same,TGI,SF-539 CNS,3.06 µM
same,GI50,SF-268 CNS,4.81 µM
same,TGI,SF-268 CNS,24 µM
same,GI50,HOP-92 NSCLC,2.84 µM
same,TGI,HOP-92 NSCLC,17.5 µM
same,GI50,COLO 205 colon,3.11 µM
same,TGI,COLO 205 colon,20.2 µM
same,GI50,MDA-MB-435,3.67 µM
same,TGI,MDA-MB-435,14.3 µM
same,GI50,BT-549 breast,6.52 µM
same,TGI,BT-549 breast,22.7 µM
same,GI50,UO-31 renal,0.605 µM
same,TGI,UO-31 renal,6.49 µM
same,GI50,HT29 colon,1.52 µM
same,TGI,HT29 colon,3.6 µM
same,GI50,SN12C renal,1.59 µM
same,TGI,SN12C renal,12.2 µM
same,GI50,HCC-2998 colon,2.69 µM
same,TGI,HCC-2998 colon,15.7 µM
same,GI50,HCT-15 colon,3.44 µM
same,TGI,HCT-15 colon,15.5 µM
same,GI50,MCF7 breast,0.747 µM
same,TGI,MCF7 breast,12.5 µM
same,GI50,NCI/ADR-RES ovarian,3.5 µM
same,TGI,NCI/ADR-RES ovarian,17.8 µM
same,GI50,T-47D breast,3.07 µM
same,TGI,T-47D breast,15.5 µM
same,GI50,HCT-116 colon,1.5 µM
same,TGI,HCT-116 colon,6.19 µM
same,GI50,OVCAR-5 ovarian,2.62 µM
same,TGI,OVCAR-5 ovarian,10.6 µM
same,GI50,MDA-MB-231 breast,2.01 µM
same,TGI,MDA-MB-231 breast,5.72 µM
same,GI50,ACHN renal,1.74 µM
same,TGI,ACHN renal,5.3 µM
same,GI50,MOLT-4 leukemia,1.17 µM
same,TGI,MOLT-4 leukemia,6.54 µM
same,GI50,SK-MEL-28 melanoma,7.93 µM
same,TGI,SK-MEL-28 melanoma,20.6 µM
same,GI50,NCI-H23 lung,2.64 µM
same,TGI,NCI-H23 lung,13.1 µM
same,GI50,K-562 leukemia,1.78 µM
same,TGI,K-562 leukemia,> 100 µM
same,GI50,786-0 renal,3.48 µM
same,TGI,786-0 renal,13.3 µM
same,GI50,HS 578T breast,11.2 µM
same,TGI,HS 578T breast,29.7 µM
same,GI50,SK-MEL-2 melanoma,15.9 µM
same,TGI,SK-MEL-2 melanoma,30.5 µM
same,GI50,DU-145 prostate,3.08 µM
same,TGI,DU-145 prostate,14.4 µM
same,GI50,UACC-257 melanoma,10.6 µM
same,TGI,UACC-257 melanoma,25.3 µM
same,GI50,M14 melanoma,3.1 µM
same,TGI,M14 melanoma,14.1 µM
same,GI50,UACC-62 melanoma,1.91 µM
same,TGI,UACC-62 melanoma,11.8 µM
same,GI50,LOX IMVI melanoma,1.19 µM
same,TGI,LOX IMVI melanoma,2.47 µM
same,GI50,NCI-H226 lung,1.44 µM
same,TGI,NCI-H226 lung,5 µM
same,GI50,HOP-62 NSCLC,2.34 µM
same,TGI,HOP-62 NSCLC,11.8 µM
same,GI50,IGROV1 ovarian,1.99 µM
same,TGI,IGROV1 ovarian,15.4 µM
same,GI50,OVCAR-3 ovarian,5.89 µM
same,TGI,OVCAR-3 ovarian,22.6 µM
same,GI50,A498 renal,6.15 µM
same,TGI,A498 renal,20.9 µM
same,GI50,SW-620 colon,0.997 µM
same,TGI,SW-620 colon,11.9 µM
